For 12 compounds, AC50 results are on record in PubChem BioAssay AID540318 (Broad Institute, 2011).

The structures appear in SMILES notation.

This test relates to BJeLR fibroblasts viability, Alamar Blue fluorescence, 48 h. Nature of the test: viability loss in BJeLR fibroblasts, dose response, cell-based, Ras selective lethality, dry powder, set 4 (AID 540318).

As usually defined, the AC50 is the concentration giving half of the maximal activity seen. Consider `O=C(c1ccc([N+](=O)[O-])o1)N1CCN(C(c2ccc(F)cc2)c2ccc(F)cc2)CC1`, for which the AC50 was 34.9 µM.
For `Cc1onc(C(=O)N2CCN(C(c3ccccc3)c3ccc(Cl)cc3)CC2)c1[N+](=O)[O-]` (configuration not stated) the value was 0.706 µM; for `COC(=O)c1ccc([C@@H]2c3[nH]c4ccccc4c3C[C@@H](C(=O)OC)N2C(=O)CCl)cc1`, 0.79 µM.
As to `Cc1onc(C(=O)N2CCN(C(c3ccc(F)cc3)c3ccc(F)cc3)CC2)c1[N+](=O)[O-]`, the AC50 was 0.934 µM.
For `O=C(c1cc([N+](=O)[O-])ccn1)N1CCN(C(c2ccccc2)c2ccccc2)CC1`, the AC50 was 37.1 µM.
In the case of `Cc1onc(C(=O)N2CCN(C(c3ccc(Cl)cc3)c3ccc(Cl)cc3)CC2)c1[N+](=O)[O-]` it was 0.364 µM; in that of `Cc1onc(C(=O)N2CCCN(C(c3ccccc3)c3ccccc3)CC2)c1[N+](=O)[O-]`, 3.45 µM; in that of `CCOc1ccccc1-n1c(C(C)N2CCN(C(=O)COc3ccc(Cl)cc3)CC2)nc2ccccc2c1=O` (configuration not stated), 1.43 µM.
As to `Cc1onc(C(=O)N2CCN(C(c3ccccc3)c3ccccc3)CC2)c1[N+](=O)[O-]`, the AC50 is 2.81 µM.
On to `COc1ccc(C(c2ccc(OC)cc2)N2CCN(C(=O)c3noc(C)c3[N+](=O)[O-])CC2)cc1`, for which the AC50 is 4.29 µM.
`O=C(NCCNC(c1ccccc1)c1ccccc1)c1ccc([N+](=O)[O-])o1`: the AC50 is 25.9 µM.
`Cc1onc(CC(=O)N2CCN(C(c3ccc(F)cc3)c3ccc(F)cc3)CC2)c1[N+](=O)[O-]`: the concentration at half-maximal activity (AC50) is 28 µM.
